Laboratory results published in US12018097.
Like-named read-outs stand apart in the source and are kept apart here.

Settings: the molecule shown is the open-chain precursor, thioether bond, resin, 4 steps

Substance: catch-resin-ArSO2O-CH2CO-dTrp-MeAla-Asp-Val-MeSer-Gly-Arg-MePhe-MeGly-Cys-Gly-NH2?
- ring closure, conversion (33-membered ring): 64%

Substance: catch-resin-ArSO2O-CH2CO-dTrp-MeAla-Asp-Val-MeSer-Cys-Gly-NH2?
- ring closure, conversion (21-membered ring): 66%

Substance: catch-resin-ArSO2O-CH2CO-dTrp-Asp-Pro-MeAla-Asp-Val-MeSer-Gly-Arg-MePhe-MeGly-Tyr-MePhe-Pro-Cys-Gly-NH2?
- ring closure, conversion (48-membered ring): 74%

Substance: catch-resin-ArSO2O-CH2CO-dTrp-MeSer-Gly-Asp-Pro-MeAla-Asp-Val-MeSer-Gly-Arg-MePhe-MeGly-Tyr-MePhe-Pro-Cys-Gly-NH2?
- ring closure, conversion (54-membered ring): 29%

Substance: catch-resin-ArSO2O-CH2CO-dTrp-MeAla-Tyr-Asp-MeSer-Gly-Asp-Pro-MeAla-Asp-Val-MeSer-Gly-Arg-MePhe-MeGly-Tyr-MePhe-Pro-Cys-Gly-NH2?
- ring closure, conversion (63-membered ring): 44%

Substance: catch-resin-ArSO2O-CH2CO-dTrp-MeAla-Asp-Val-MeSer-Gly-Arg-MePhe-MeGly-Tyr-Cys-Gly-NH2?
- ring closure, conversion (36-membered ring): 72%

Substance: catch-resin-ArSO2O-CH2CO-dTrp-Pro-MeAla-Asp-Val-MeSer-Gly-Arg-MePhe-MeGly-Tyr-MePhe-Pro-Cys-Gly-NH2?
- ring closure, conversion (45-membered ring): 33%

Substance: catch-resin-ArSO2O-CH2CO-dTrp-Tyr-Asp-MeSer-Gly-Asp-Pro-MeAla-Asp-Val-MeSer-Gly-Arg-MePhe-MeGly-Tyr-MePhe-Pro-Cys-Gly-NH2?
- ring closure, conversion (60-membered ring): 57%

Substance: catch-resin-ArSO2O-CH2CO-dTrp-Cys-Asp-Val-MeSer-Gly-Arg-MePhe-MeGly-Tyr-MePhe-Pro-Cys-Gly-NH2?
- ring closure, conversion (42-membered ring): 28%

Substance: catch-resin-ArSO2O-CH2CO-dTrp-MeAla-Asp-Val-Cys-Gly-NH2?
- ring closure, conversion (18-membered ring): 83%

Substance: catch-resin-ArSO2O-CH2CO-dTrp-Asp-MeSer-Gly-Asp-Pro-MeAla-Asp-Val-MeSer-Gly-Arg-MePhe-MeGly-Tyr-MePhe-Pro-Cys-Gly-NH2?
- ring closure, conversion (57-membered ring): 50%

Substance: catch-resin-ArSO2O-CH2CO-dTrp-Gly-Asp-Pro-MeAla-Asp-Val-MeSer-Gly-Arg-MePhe-MeGly-Tyr-MePhe-Pro-Cys-Gly-NH2?
- ring closure, conversion (51-membered ring): 51%

Substance: catch-resin-ArSO2O-CH2CO-dTrp-MeAla-Asp-Val-MeSer-Gly-Arg-MePhe-MeGly-Tyr-MePhe-Pro-Cys-Gly-NH2?
- ring closure, conversion (42-membered ring): 50%

Substance: catch-resin-ArSO2O-CH2CO-dTrp-MeAla-Asp-Val-MeSer-Gly-Arg-Cys-Gly-NH2?
- ring closure, conversion (27-membered ring): 98%
